Data taken from PubChem BioAssay (NCI).
Where “and” joins values, the source holds several entries; their conditions need not be identical. Identical values can stand only once.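 Following 48 hours of exposure in 96-well plates, responses at five concentrations were used to interpolate endpoints linearly. Here, GI50 denotes the concentration required for 50% inhibition of growth. TGI marks complete inhibition of growth.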

Columns and labels:
Experiment in all cases: DTP human tumour cell line panel, 48 h
SK-MEL-2 melanoma = tested on: SK-MEL-2 melanoma
TK-10 renal = tested on: TK-10 renal
OVCAR-5 ovarian = tested on: OVCAR-5 ovarian
SK-MEL-28 melanoma = tested on: SK-MEL-28 melanoma
HCT-116 colon = tested on: HCT-116 colon
LOX IMVI melanoma = tested on: LOX IMVI melanoma
HOP-62 NSCLC = tested on: HOP-62 NSCLC
SF-268 CNS = tested on: SF-268 CNS
SF-539 CNS = tested on: SF-539 CNS
ACHN renal = tested on: ACHN renal
OVCAR-3 ovarian = tested on: OVCAR-3 ovarian
UO-31 renal = tested on: UO-31 renal
UACC-257 melanoma = tested on: UACC-257 melanoma
U251 CNS = tested on: U251 CNS
MDA-MB-435 = tested on: MDA-MB-435
CAKI-1 renal = tested on: CAKI-1 renal
HCT-15 colon = tested on: HCT-15 colon
SN12C renal = tested on: SN12C renal
NCI-H226 lung = tested on: NCI-H226 lung
SNB-19 CNS = tested on: SNB-19 CNS
786-0 renal = tested on: 786-0 renal
SW-620 colon = tested on: SW-620 colon
MCF7 breast = tested on: MCF7 breast
MOLT-4 leukemia = tested on: MOLT-4 leukemia
MDA-MB-231 breast = tested on: MDA-MB-231 breast
SF-295 CNS = tested on: SF-295 CNS
RPMI-8226 leukemia = tested on: RPMI-8226 leukemia
COLO 205 colon = tested on: COLO 205 colon
NCI-H522 lung = tested on: NCI-H522 lung
HL-60(TB) leukemia = tested on: HL-60(TB) leukemia
OVCAR-4 ovarian = tested on: OVCAR-4 ovarian
HT29 colon = tested on: HT29 colon
NCI-H460 lung = tested on: NCI-H460 lung
NCI/ADR-RES ovarian = tested on: NCI/ADR-RES ovarian
A498 renal = tested on: A498 renal
HCC-2998 colon = tested on: HCC-2998 colon
SNB-75 CNS = tested on: SNB-75 CNS
A549 NSCLC = tested on: A549 NSCLC
MALME-3M melanoma = tested on: MALME-3M melanoma
PC-3 prostate = tested on: PC-3 prostate
MDA-N = tested on: MDA-N
RXF 393 renal = tested on: RXF 393 renal
KM12 colon = tested on: KM12 colon
SK-MEL-5 melanoma = tested on: SK-MEL-5 melanoma
EKVX NSCLC = tested on: EKVX NSCLC
NCI-H23 lung = tested on: NCI-H23 lung
IGROV1 ovarian = tested on: IGROV1 ovarian
M14 melanoma = tested on: M14 melanoma
T-47D breast = tested on: T-47D breast
UACC-62 melanoma = tested on: UACC-62 melanoma
DU-145 prostate = tested on: DU-145 prostate
SR leukemia = tested on: SR leukemia
SK-OV-3 ovarian = tested on: SK-OV-3 ovarian
K-562 leukemia = tested on: K-562 leukemia
OVCAR-8 ovarian = tested on: OVCAR-8 ovarian
CCRF-CEM leukemia = tested on: CCRF-CEM leukemia

SMILES: CCCCCCCCCC[C@H](O)[C@H](O)CC[C@@H](O)[C@H]1CC[C@@H]([C@H]2CC[C@H](CCCCCCC[C@@H](O)CC3=C[C@H](C)OC3=O)O2)O1
- GI50 (SK-MEL-2 melanoma): 27 µM
- GI50 (TK-10 renal): 36.3 µM
- TGI (TK-10 renal): > 100 µM
- GI50 (OVCAR-5 ovarian): 47.7 µM
- TGI (OVCAR-5 ovarian): > 100 µM
- GI50 (SK-MEL-28 melanoma): 47 µM
- TGI (SK-MEL-28 melanoma): > 100 µM
- GI50 (HCT-116 colon): 0.966 µM
- TGI (HCT-116 colon): 61.6 µM
- GI50 (LOX IMVI melanoma): 2.9 µM
- TGI (LOX IMVI melanoma): 3.5 µM and 24.2 µM
- GI50 (HOP-62 NSCLC): 11.6 µM
- TGI (HOP-62 NSCLC): 69.8 µM
- GI50 (SF-268 CNS): 29.3 µM
- TGI (SF-268 CNS): > 100 µM
- GI50 (SF-539 CNS): 15.5 µM
- TGI (SF-539 CNS): 40.9 µM
- TGI (ACHN renal): > 100 µM
- GI50 (OVCAR-3 ovarian): 11.8 µM
- TGI (OVCAR-3 ovarian): 3.42 µM and 30.9 µM
- GI50 (UO-31 renal): 16.6 µM
- TGI (UO-31 renal): 4.18 µM and 32.3 µM
- GI50 (UACC-257 melanoma): 9.51 µM
- TGI (UACC-257 melanoma): > 100 µM
- TGI (U251 CNS): > 100 µM
- GI50 (MDA-MB-435): 28.7 µM
- GI50 (CAKI-1 renal): 32.4 µM
- TGI (CAKI-1 renal): 9.67 µM and 89 µM
- GI50 (HCT-15 colon): 23.8 µM
- TGI (HCT-15 colon): > 100 µM
- GI50 (SN12C renal): 25.3 µM
- TGI (SN12C renal): 74.8 µM
- GI50 (NCI-H226 lung): 21.2 µM
- GI50 (SNB-19 CNS): 29.5 µM
- GI50 (786-0 renal): 30.9 µM
- TGI (786-0 renal): > 100 µM
- GI50 (SW-620 colon): 47.2 µM
- TGI (SW-620 colon): > 100 µM
- GI50 (MCF7 breast): 19.2 µM
- TGI (MCF7 breast): 77.6 µM
- GI50 (MOLT-4 leukemia): 23.9 µM
- TGI (MOLT-4 leukemia): 94.7 µM
- GI50 (MDA-MB-231 breast): 19.4 µM
- TGI (MDA-MB-231 breast): 7.79 µM and 69.2 µM
- GI50 (SF-295 CNS): 0.416 µM
- TGI (SF-295 CNS): 31.9 µM
- GI50 (RPMI-8226 leukemia): 16.6 µM
- TGI (RPMI-8226 leukemia): 50.4 µM
- GI50 (COLO 205 colon): 18 µM
- TGI (COLO 205 colon): 4.42 µM and 35.7 µM
- TGI (NCI-H522 lung): 62.1 µM
- TGI (HL-60(TB) leukemia): 6.74 µM
- TGI (OVCAR-4 ovarian): 78 µM
- TGI (HT29 colon): 5.64 µM
- GI50 (NCI-H460 lung): 0.39 µM
- TGI (NCI-H460 lung): 29.6 µM
- GI50 (NCI/ADR-RES ovarian): 18.2 µM
- TGI (NCI/ADR-RES ovarian): > 100 µM
- GI50 (A498 renal): 17.7 µM
- TGI (A498 renal): 87.1 µM
- TGI (HCC-2998 colon): 47 µM
- GI50 (SNB-75 CNS): 25.8 µM
- TGI (SNB-75 CNS): 98.2 µM
- GI50 (A549 NSCLC): 20.7 µM
- TGI (A549 NSCLC): > 100 µM
- TGI (MALME-3M melanoma): 48.3 µM
- GI50 (PC-3 prostate): 11.7 µM
- TGI (PC-3 prostate): 40.7 µM
- GI50 (MDA-N): 17.5 µM
- TGI (MDA-N): 53 µM
- GI50 (RXF 393 renal): 42.5 µM
- TGI (RXF 393 renal): 83 µM
- GI50 (KM12 colon): 27.7 µM
- TGI (KM12 colon): > 100 µM
- GI50 (SK-MEL-5 melanoma): 0.0863 µM
- TGI (SK-MEL-5 melanoma): 3.46 µM and 15.9 µM
- GI50 (EKVX NSCLC): 18.5 µM
- GI50 (NCI-H23 lung): 0.951 µM
- GI50 (IGROV1 ovarian): 25.8 µM
- GI50 (M14 melanoma): 23.1 µM
- TGI (M14 melanoma): 58.4 µM
- GI50 (T-47D breast): 4.22 µM
- TGI (T-47D breast): 42.8 µM
- TGI (UACC-62 melanoma): 5.95 µM

SMILES: Cc1c(CCCl)c(N=P(c2ccccc2)(c2ccccc2)c2ccccc2)n2c(nc3ccccc32)c1C#N
- TGI (DU-145 prostate): > 10 µM
- TGI (TK-10 renal): > 10 µM
- TGI (SK-MEL-28 melanoma): > 10 µM
- TGI (LOX IMVI melanoma): > 10 µM
- TGI (HOP-62 NSCLC): > 10 µM
- TGI (SF-268 CNS): > 10 µM
- TGI (SR leukemia): > 10 µM
- TGI (UACC-257 melanoma): > 10 µM
- TGI (CAKI-1 renal): > 10 µM
- TGI (HCT-15 colon): > 10 µM
- TGI (SN12C renal): > 10 µM
- TGI (786-0 renal): > 10 µM
- TGI (SK-OV-3 ovarian): > 10 µM
- TGI (SW-620 colon): > 10 µM
- TGI (MCF7 breast): > 10 µM
- TGI (MOLT-4 leukemia): > 10 µM
- TGI (MDA-MB-231 breast): > 10 µM
- TGI (SF-295 CNS): > 10 µM
- TGI (RPMI-8226 leukemia): > 10 µM
- TGI (COLO 205 colon): > 10 µM
- TGI (K-562 leukemia): > 10 µM
- TGI (HT29 colon): > 10 µM
- TGI (HCC-2998 colon): > 10 µM
- TGI (SNB-75 CNS): > 10 µM
- TGI (A549 NSCLC): > 10 µM
- TGI (MALME-3M melanoma): > 10 µM
- TGI (PC-3 prostate): > 10 µM
- TGI (MDA-N): > 10 µM
- TGI (RXF 393 renal): > 10 µM
- TGI (KM12 colon): > 10 µM
- TGI (SK-MEL-5 melanoma): > 10 µM
- TGI (EKVX NSCLC): > 10 µM
- TGI (OVCAR-8 ovarian): > 10 µM
- TGI (NCI-H23 lung): > 10 µM
- TGI (CCRF-CEM leukemia): > 10 µM
- TGI (IGROV1 ovarian): > 10 µM
- TGI (M14 melanoma): > 10 µM
- TGI (T-47D breast): > 10 µM
- TGI (UACC-62 melanoma): > 10 µM
